# From patent publication US20040048823A1 (priority 2000, published 2004)
# Legend:
# [1] = system: cancer cell lines (Malme3M, SNU1, MDAMB231, MOLT4, TCCSUP, Hep3B); experiment: Mycolactone-induced cancer cell death under light microscope; type: cell-based; details: mycolactone final 1 μg/ml, 72 hours, compared to not-treated
# Procedure: Cancer cell lines used for the experiment was as follows; 2 skin cancer cell lines (Malme3M and SK-Mel-24), 1 breast cancer cell line (MDAMB231), 1 leukemia cell line (MOLT4), 1 stomach cancer cell line (SNU1); 1 bladder cancer cell line (TCCSUP), 8 hepatoma cell lines (SK-Hep1, Hep3B, SNU182, SNU387, SNU398, SNU449, SNU475, and HepG2), 2 colon cancer cell lines (HT-29 and DLD-1), and 1 oral cavity cancer cell line (SCC-15). Cancer cells were cultured in RPMI1640 media containing 10% fetal bovine serum, penicillin (10 unit/ml), and streptomycin (100 μg/ml) in 75 cm^2 flask at 37° C. in the presence of 5% CO2.
# After cultivation of cancer cells ([…]) in 6-well plate for 24 hours, mycolactone (final 1 μg/ml) was added and the cell morphology was observed after 72 hours under light microscope. Cancer cells became round up and died after mycolactone treatment.
# FIGS. (1a to 1f) show the results in skin cancer (Malme3M), stomach cancer (SNU1), breast cancer (MDAMB231), leukemia (MOLT4), bladder cancer (TCCSUP), and hepatoma (Hep3B). The morphological change of colon and oral cavity cancers is not shown.
# Hep3B cancer cells = experiment: Morphological change by transmission electron microscopy; type: cell-based, human; details: mycolactone 1 μg/ml, 24 hours
# Procedure: Morphological change of Hep3B cancer cells was observed by transmission electron microscopy (hereinafter, TEM) Cancer cells (5×10^6) were cultured and treated with mycolactone (1 μg/ml). Cell were collected after 24 hours and fixed with 2.5% glutaraldehyde. The sample was treated with OsO4, dehydrated with ethanol, and embedded to […].
# [2] = system: CPP32 caspase and poly-ADP-ribose polymerase in Hep3B cancer cells; experiment: Western blot of CPP32 caspase activation and poly-ADP-ribose polymerase cleavage; type: cell-based, human; details: mycolactone final 1 μg/ml
# Procedure: CPP32 caspase activation and following cleavage of poly-ADP-ribose polymerase, typical biochemical phenomena of apoptosis, were examined by Western-blotting. Hep3B cancer cells (5×10^6) were cultured and treated with mycolactone (final 1 μg/ml). Cells were collected after 2, 4, 8, 12, 24, or 48 hours and Western blot was performed with anti-CPP32 antibody (Oncogene, Mass., USA) or anti-poly-ADP-ribose polymerase antibody (Enzyme Systems Products, CA, USA). Protein preparation was performed as follows. Cells were suspended in 400 μl of lysis buffer (125 mM Tris-HCl [pH 6.8], 20% glycerol, 2% SDS, and 10% β-mercaptoethanol), vortexed for 30 seconds, and kept at 95° C. for 5 minutes Cell lysates were separated on a 10% SDS-polyacrylamide gel and transferred to nitrocellulose membrane. Antibody reaction was performed with the antibodies describe above. CPP32 caspase activation was started at 4 hours and maintained until 24 hours, while the cleavage of poly-ADP-ribose polymerase was started at 8 hours after mycolactone treatment. […] Pro-CPP32 and Active CPP32 as shown on left are CPP32 caspase (the caspase 3) before and after activation, respectively; PARP is poly-ADP-ribose polymerase; cleaved PARP is cleaved poly-ADP-ribose polymerase.
# [3] = system: bcl-2 family genes in Hep3B cells; experiment: Ribonuclease protection assay (RPA) of bcl-2 family gene mRNA; type: cell-based, human
# Procedure: To find target genes of mycolactone, mRNA transcription levels of bcl-2 family genes were examined. Total RNA was prepared from mycolactone-treated Hep3B cells and the expression of 7 genes belonging to bcl-2 family by ribonuclease protection assay (RPA). Total RNA was prepared with RNeasy minikit (Qiagen Inc., Chatsworth, Calif.) as described below. Mycolactone treated cancer cells were collected and washed with PBS. Cells were suspended in lysis buffer containing β-mercaptoethanol. Cells were passed through a 20-G syringe for more than 5 times. Equal volume of 70% ethanol was added and the suspension was mixed well. The suspension was applied to RNeasy mini spin column. The column was centrifuged at 10,000 rpm for 15 seconds and washed 2 times with washing buffer plus PRE buffer. RNA attached to the column was eluted with RNase-free distilled water. RNA was stored at −70° C. before use.
# The mRNA expression profile of bcl-2 family genes was examined by RPA using multi-probe RNase Protection Assay System (PharMingen, CA, USA) with the following procedures. Specific RNA probe labeled with radioisotope is synthesized and used for hybridization with the RNA prepared from each sample. After removal of single-stranded RNA that is not hybridized with the probe and the residual riboprobe, the sample is electrophoresed on a denaturing polyacrylamide gel. After autoradiography, the mRNA expression was analyzed through measuring the density of hybridized bands.
# RPA is a 3-Step Procedure
# 1). Synthesis of probe: Probe is synthesized by incubating transcription mixture solution ([…], 1 μl GACU pool, 2 μl DTT, 4 μl 5× transcription buffer, 1 μl RPA template set, 1 μlA T7 polymerase) at 37° C. for 1 hour. The reaction was stopped by adding 2 μl of DNase. Probe synthesis was completed by phenol treatment and ethanol precipitation The precipitated probe was dissolved in 50 μl of hybridization buffer.
# 2) RNA preparation and hybridization: Total RNA prepared (10-20 μg) was kept at −70° C. for 15 minutes and dried completely in vacuum evaporator. Hybridization was performed by the following reactions; addition of 8 μl of hybridization buffer, vortexing and brief centrifuge; addition and mixing of 2 μl of probe diluted at about 3×10^5 cpm/μl; addition of mineral oil. Hybridization mixture was kept briefly at 90° C., then incubated at 56° C. for 12 to 16 hours. Hybridization was completed by incubating the mixture at 37° C. for 15 minutes.
# 3) RNase treatment, electrophoresis, and autoradiography: RNase mixture (100 μl) was added to the hybridization mixture and the non-hybridized RNA was removed by incubating at 30° C. for 45 minutes. RNase digestion was terminated by adding proteinase K mixture solution. After phenol treatment and ethanol precipitation, the sample was dried. The sample was nixed with 5 μl of 1× loading buffer, heated at 90° C. for 3-minutes, kept on ice, electrophoresed ort a denaturing polyacrylamide gel, dried, and exposed to X-ray film.
# [4] = system: Hep3B human hepatoma cells transplanted to nude mice; experiment: In vivo anticancer effect in nude mice
# Procedure: Hep3B human hepatoma cells were transplanted to nude mice and tumor growth was induced for 2 to 3 weeks. Then, mycolactone was injected to the tumor tissue by 4-3 days method, that is, injection for 4 days and rest for 3 days. PBS solution (50 μl) with or without mycolactone (20 μg) was injected to tumor of treatment (T) or control (C) mouse, respectively. The tumor volume was estimated by measuring both long and short diameters. The tumor volume at the day of first injection was 101.3 mm^3 (C) or 105.9 mm^3 (T).
# [5] = system: HUVEC (Human umbilical vein endothelial cell); experiment: Tube formation assay (In Vitro Angiogenesis Assay Kit); type: cell-based
# Procedure: HUVEC (Human umbilical vein endothelial cell, American Type Culture Collection, Manassas, Va.) cells were maintained in HAM's F-12K nutrient mixture (Sigma, St. Louis, Mo.) with 10% fetal bovine serum and endothelial cell growth supplement (Sigma, St. Louis, Mo.). Cells were plated onto a 1% gelatinized plastic surface and incubated in the presence of 5% CO2 at 37° C. Tube formation assay was performed using an In Vitro Angiogenesis Assay Kit. (Chemicon, Temecula, Calif.) with following procedures. A 50 μl of the Diluent Buffer-ECMatrix solution mixture was transferred to 96-well tissue culture plate and kept at 37° C. for 1 hour for solidification of the matrix solution. HUVEC cells were seeded onto the surface of the polymerized ECMatrix in each well and incubated in the presence of ethanol (control) or mycolactone (containing 1% of ethanol).
# murine L929 cell line = details: cited from earlier work
# murine J779 cell line = details: cited from earlier work
# [6] = system: Rb protein in SNU475 (Rb-positive cancer cell line); experiment: Western blot of Rb protein expression after oligonucleotide transfection; type: cell-based, human; details: SNU475 transfected with 1 uM oligonucleotide, compared to sense Rb oligonucleotide transfectants
# Procedure: An Rb-positive cancer cell SNU475 was cultured overnight in 6-well plate (5×10^6 cancer cells per well) with RPMI1640 medium. Sense or antisense Rb oligonucleotide, as described in Example 4, was transfected to the cultured cancer cells using Lipofectamine-PLUS (Gibco BRL, Grand Island, N.Y.) with the following procedures. Sense or antisense Rb oligonucleotide was diluted (final 1 uM) in fetal bovine serum-free RPMI1640 medium. PLUS reagent (Gibco BRL, NY, USA) was added, mixed well, and incubated at room temperature for 15 minutes. During this incubation, Lipofectamine was diluted in fetal bovine serum-fee RPMI1640 medium in separate test tubes. After 15 minutes, 2 solutions were mixed well and incubated at room temperature for 30 minutes for induction of oligonucleotide-Lipofectamine complex formation. During this incubation, the medium in overnight culture of the cancer cells was changed with fresh fetal bovine serum-free RPMI1640 medium. The solution containing oligonucleotide-Lipofectamine complex was carefully dropped on each culture plate and incubated at 37° C. for 3 hours. […]
# Nuclear protein fraction was prepared to examine the Rb expression in SNU475 cell line transfected with sense or antisense Rb oligonucleotide by Western blotting. […] The protein concentration in the supernatant was determined and used for Western blotting. […]
compound,measurement,setting,value
CC(=C\C=C\C(C)=C\[C@H](O)[C@@H](O)C[C@H](C)O)/C=C(C)/C=C/C(=O)O[C@H]1CCCC(=O)O[C@@H]([C@@H](C)C/C(C)=C/[C@@H](C)[C@H](O)C[C@@H](C)O)C/C=C(\C)C[C@@H]1C [mycolactone],"cancer cell death, cell morphology under light microscope",[1],Significant cell death
same,morphology by TEM,Hep3B cancer cells,typical apoptosis morphologies
same,CPP32 caspase activation maintained until,[2],24 h
same,CPP32 caspase activation started at,[2],4 h
same,cleavage of poly-ADP-ribose polymerase started at,[2],8 h
same,cleavage of poly-ADP-ribose polymerase,[2]; after 48 hours,completely cleaved
same,mRNA expression of bcl-2,[3],very low mRNA expression without significant change
same,mRNA expression of bcl-w,[3],No change
same,mRNA expression of mcl-1,"[3]; after 4 hours, maintained until 24 hours",decreased slowly
same,mRNA expression of mcl-1,[3]; at 2 hour,increased transiently
same,mRNA expression of bcl-XL,[3]; starting at 8 hours until 24 hours,decrease
same,"mRNA expression of pro-apoptotic genes (bad, bak, and bax)",[3]; until 24 hours after treatment,no change
same,tumor tissue inside the body at sacrifice,"[4]; day 45, T mouse",not to have any tumor tissue
same,"tumor, treated (T) versus control (C) mouse","[4]; first week, 20 μg injected into tumor, 4 days on, 3 days rest",no significant difference
same,tumor,"[4]; fourth week, T mouse, 20 μg injected into tumor",disappeared
same,tumor volume,"[4]; second week, T mouse, 20 μg injected into tumor, 105.9 mm^3 at first injection",63.8 mm^3
same,tumor volume,"[4]; third week, T mouse, 20 μg injected into tumor",20.8 mm^3
same,condition of the treated mouse,"[4]; until the day 45, T mouse",healthy
same,inhibition of tube formation maintained until,[5]; mycolactone 1 μg,7.5 h
same,tube formation,"[5]; mycolactone 1 μg, after 4 hour",inhibited
same,tube formation,"[5]; mycolactone 5 μg, after 4 hours",almost completely inhibited
same,cell death with prolonged treatment,"murine L929 cell line; L929, prolonged treatment",apoptosis
same,cytopathic effects,murine L929 cell line; L929,detaching of cells from culture plates and cell rounding-up
same,time to G1 cell cycle arrest,murine L929 cell line; L929,≤ 48 h
same,cell death with prolonged treatment,"murine J779 cell line; J779, prolonged treatment",apoptosis
same,time to G1 cell cycle arrest,murine J779 cell line; J779,≤ 48 h
"antisense Rb oligonucleotide: phosphorothioate-backbone antisense oligonucleotide targeting the protein initiation codon region of human Rb mRNA (antisense GGGTTTTGGGCGGCATGA; all phosphorothioate, sugars by position and methylation of C not given here)",Rb protein expression,[6],Significant time-dependent decrease
